Data: patent US20070185161A1, “Bicyclic substituted indole-derivative steroid hormone nuclear receptor modulators” (priority 2004, published 2007)

Target: T1, glucocorticoid receptor (A549 human lung epithelial cell extract) (Homo sapiens, UniProt P04150)
T1 construct: host or cells: A549 human lung epithelial cells
T1 sequence (P04150 1-777): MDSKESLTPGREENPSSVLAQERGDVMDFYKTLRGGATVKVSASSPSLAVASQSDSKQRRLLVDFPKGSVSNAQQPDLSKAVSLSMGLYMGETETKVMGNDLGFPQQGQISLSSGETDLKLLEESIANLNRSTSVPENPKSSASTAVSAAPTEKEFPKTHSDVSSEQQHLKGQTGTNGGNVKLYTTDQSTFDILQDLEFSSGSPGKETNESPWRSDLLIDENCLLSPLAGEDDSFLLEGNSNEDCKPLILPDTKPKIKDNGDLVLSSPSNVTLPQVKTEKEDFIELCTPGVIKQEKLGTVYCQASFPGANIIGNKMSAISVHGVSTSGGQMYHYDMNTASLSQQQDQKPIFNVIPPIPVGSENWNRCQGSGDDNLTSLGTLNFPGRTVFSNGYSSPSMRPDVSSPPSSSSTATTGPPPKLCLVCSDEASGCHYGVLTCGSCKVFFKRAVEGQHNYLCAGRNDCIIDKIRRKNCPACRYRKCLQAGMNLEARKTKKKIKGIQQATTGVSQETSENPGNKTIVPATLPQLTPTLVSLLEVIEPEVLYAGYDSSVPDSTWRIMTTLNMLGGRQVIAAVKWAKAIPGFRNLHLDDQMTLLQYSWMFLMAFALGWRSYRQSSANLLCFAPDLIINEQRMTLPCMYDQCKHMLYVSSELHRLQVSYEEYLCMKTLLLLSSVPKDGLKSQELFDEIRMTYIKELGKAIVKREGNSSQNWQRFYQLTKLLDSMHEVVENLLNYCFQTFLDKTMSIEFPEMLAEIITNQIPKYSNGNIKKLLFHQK
Experiment: Glucocorticoid Receptor Binding Assay (Method 1)
Conditions: [3H]-dexamethasone, racemic mixture unless otherwise indicated, read-out: GR Ki (nM) Method 1
Protocol: A549 human lung epithelial cells (ATCC) are grown at a scale where gram quantity cell pellets are obtained. Harvested cell pellets are washed twice in cold phosphate buffered saline, centrifuged, and resuspended in cold assay binding buffer. The assay binding buffer consists of 10% glycerol, 50 mM Tris-HCl (pH7.2), 75 mM sodium chloride, 1.5 mM magnesium chloride, 1.5 mM EDTA, and 10 mM sodium molybdate. Cell suspensions were lysed via sonication, centrifuged, and the “extract” supernatant is snap frozen and stored at −80 C until needed.
GR binding assays are performed in a final volume of 140 ul containing 50-200 ug of A549 cell extract and 1.86 nM [^3H]-dexamethasone (Amersham) plus varying concentrations of test compound or vehicle. Briefly, assays are prepared at RT in 96-well Fisher 3356 plates, each well containing 100 ul of A549 cell extract, 20 ul of [^3H]-dexamethasone, and 20 ul of test compound/vehicle. Incubations are carried out at 4 degrees Celsius for 16 hours. After incubation, 70 ul of 3× dextran-coated charcoal solution is added to each reaction, mixed, and incubated for 8 minutes at RT. 3×-dextran-coated charcoal solution consists of 250 ml assay binding buffer, 3.75 g Norit A charcoal (Sigma), and 1.25 g dextran T-70 (Amersham). Charcoal/unbound radioligand complexes are removed by centrifugation of the plate and 140 ul of supernatant from each well is transferred to another 96 well Optiplate (Packard Instruments). 200 ul of Microscint-20 scinillant (Packard Instruments) is added to each well and amount of receptor bound radioligand is determined using Packard Instruments TopCount instrument.
IC50 values, defined as the concentration of test compound required to decrease [^3H]-dexamethasone binding by 50%, are then determined. Ki values for each respective test compound can then be calculated by application of the Cheng-Prusoff equation as described in Cheng et al., Relationship Between The Inhibition Constant (Ki) and The Concentration of Inhibitor Which Causes 50% Inhibition (IC50) of an Enzymatic Reaction, Biochem. Pharmacol., 22: 3099-31088; (1973).

Compound | Ki [nM]
CC1(c2c[nH]c3c(NS(C)(=O)=O)cccc23)CCCc2cc(F)ccc21 (racemic) [Example 28, N-[3-(6-Fluoro-1-methyl-1,2,3,4-tetrahydro-naphthalen-1-yl)-1H-indol-7-yl]-methanesulfonamide] | ≤ 500
CC1(c2c[nH]c3c(NS(C)(=O)=O)cccc23)CCc2cc(F)ccc21 (racemic) [Example 21, N-[3-(5-Fluoro-1-methyl-indan-1-yl)-1H-indol-7-yl]-methanesulfonamide] | ≤ 500
CCC1(c2c[nH]c3c(NS(C)(=O)=O)cccc23)CCCc2cc(F)ccc21 (racemic) [Example 29, N-[3-(1-Ethyl-6-fluoro-1,2,3,4-tetrahydro-naphthalen-1-yl)-1H-indol-7-yl]-methanesulfonamide] | ≤ 500
CCC1(c2c[nH]c3c(NS(C)(=O)=O)cccc23)CCc2cc(F)ccc21 (racemic) [Example 1, N-[3-(1-ethyl-5-fluoro-indan-1-yl)-1H-indol-7-yl]-methanesulfonamide] | ≤ 500
CC1(c2c[nH]c3c(NS(C)(=O)=O)cccc23)CCc2cc(-n3cccn3)ccc21 (stereo not drawn) [Example 24, N-[3-(1-Methyl-5-pyrazol-1-yl-indan-1-yl)-1H-indol-7-yl]-methanesulfonamide] | ≤ 500
CCC1(c2c[nH]c3c(NS(C)(=O)=O)cccc23)CCCc2cc(F)cc(F)c21 (racemic) [Example 31, N-[3-(1-Ethyl-6,8-difluoro-1,2,3,4-tetrahydro-naphthalen-1-yl)-1H-indol-7-yl]-methanesulfonamide] | ≤ 500
CC1(c2c[nH]c3c(NS(C)(=O)=O)cccc23)CCCCc2ccccc21 (stereo not drawn) [Example 38, N-[3-(5-Methyl-6,7,8,9-tetrahydro-5H-benzocyclohepten-5-yl)-1H-indol-7-yl]-methanesulfonamide] | ≤ 500
CC1(c2c[nH]c3c(NS(C)(=O)=O)cccc23)CCCc2ccccc21 (stereo not drawn) [Example 26, N-[3-(1-Methyl-1,2,3,4-tetrahydro-naphthalen-1-yl)-1H-indol-7-yl]-methanesulfonamide] | ≤ 500
CC1(c2c[nH]c3c(NS(C)(=O)=O)cccc23)CCOc2ccc(F)cc21 (stereo not drawn) [Example 33, N-[3-(6-Fluoro-4-methyl-chroman-4-yl)-1H-indol-7-yl]-methanesulfonamide] | ≤ 500
CC1(c2c[nH]c3c(NS(C)(=O)=O)cccc23)CCc2ccccc21 (stereo not drawn) [Example 20, N-[3-(1-Methyl-indan-1-yl)-1H-indol-7-yl]-methanesulfonamide] | ≤ 500
CCC1(c2c[nH]c3c(NS(C)(=O)=O)cccc23)CCc2cc(F)cc(F)c21 (racemic) [Example 23, N-[3-(1-Ethyl-5,7-difluoro-indan-1-yl)-1H-indol-7-yl]-methanesulfonamide] | ≤ 500
CCC1(c2c[nH]c3c(NS(C)(=O)=O)cccc23)CCc2cc(F)ccc21 (single isomer, unassigned) [Example 1A, N-[3-(1-ethyl-5-fluoro-indan-1-yl)-1H-indol-7-yl]-methanesulfonamide] | ≤ 500
CC1(c2c[nH]c3c(NS(C)(=O)=O)cccc23)CCSc2ccccc21 (stereo not drawn) [Example 37, N-[3-(4-Methyl-thiochroman-4-yl)-1-indol-7-yl]-methanesulfonamide] | ≤ 500
CS(=O)(=O)Nc1cccc2c(C3CCCc4ccccc43)c[nH]c12 (stereo not drawn) [Example 25, N-[3-(1,2,3,4-Tetrahydro-naphthalen-1-yl)-1H-indol-7-yl]-methanesulfonamide] | ≤ 500
CCC1(c2c[nH]c3c(NS(C)(=O)=O)cccc23)CCCc2ccccc21 (stereo not drawn) [Example 27, N-[3-(1-Ethyl-1,2,3,4-tetrahydro-naphthalen-1-yl)-1H-indol-7-yl]-methanesulfonamide] | ≤ 500
CC1(c2c[nH]c3c(NS(C)(=O)=O)cccc23)CCOc2ccccc21 (stereo not drawn) [Example 32, N-[3-(4-Methyl-chroman-4-yl)-1H-indol-7-yl]-methanesulfonamide] | ≤ 500

Results, then the compound that gave them:

Ki [nM] | Compound
≤ 500 | CC1(c2c[nH]c3c(NS(C)(=O)=O)cccc23)CCCc2cc(F)ccc21 (single isomer, unassigned) [Example 28A, N-[3-(6-Fluoro-1-methyl-1,2,3,4-tetrahydro-naphthalen-1-yl)-1H-indol-7-yl]-methanesulfonamide]
≤ 500 | CCC1(c2c[nH]c3c(NS(C)(=O)=O)cccc23)CCCc2cc(F)ccc21 (single isomer, unassigned) [Example 29A, N-[3-(1-Ethyl-6-fluoro-1,2,3,4-tetrahydro-naphthalen-1-yl)-1H-indol-7-yl]-methanesulfonamide]
≤ 500 | CC1(c2c[nH]c3c(NS(C)(=O)=O)cccc23)CCCc2cc(F)ccc21 (single isomer, unassigned) [Example 28B, N-[3-(6-Fluoro-1-methyl-1,2,3,4-tetrahydro-naphthalen-1-yl)-1H-indol-7-yl]-methanesulfonamide]
≤ 10000 | CCC1(c2c[nH]c3c(NS(C)(=O)=O)cccc23)CCc2cc(F)cc(F)c21 (single isomer, unassigned) [Example 23B, N-[3-(1-Ethyl-5,7-difluoro-indan-1-yl)-1H-indol-7-yl]-methanesulfonamide]
≤ 500 | CC1(c2c[nH]c3c(NS(C)(=O)=O)cccc23)CCc2cc(F)ccc21 (single isomer, unassigned) [Example 21B, N-[3-(5-Fluoro-1-methyl-indan-1-yl)-1H-indol-7-yl]-methanesulfonamide]
≤ 500 | CC1(c2c[nH]c3c(NS(C)(=O)=O)cccc23)CCc2cc(F)ccc21 (single isomer, unassigned) [Example 21A, N-[3-(5-Fluoro-1-methyl-indan-1-yl)-1H-indol-7-yl]-methanesulfonamide]
≤ 500 | CCC1(c2c[nH]c3c(NS(C)(=O)=O)cccc23)CCc2cc(F)cc(F)c21 (single isomer, unassigned) [Example 23A, N-[3-(1-Ethyl-5,7-difluoro-indan-1-yl)-1H-indol-7-yl]-methanesulfonamide]
≤ 500 | CCC1(c2c[nH]c3c(NS(C)(=O)=O)cccc23)CCCc2cc(F)ccc21 (single isomer, unassigned) [Example 29B, N-[3-(1-Ethyl-6-fluoro-1,2,3,4-tetrahydro-naphthalen-1-yl)-1H-indol-7-yl]-methanesulfonamide]
